Results from paper PMC8766924 (Angewandte Chemie (International ed. in English), 2021).

How the values were obtained:
[1] = tested on: Y5R; assay: Calcium flux assay of NPY analogs; type: cell-based; settings: Figure 3B-C, at least two independent experiments in triplicates
[2] = target: T1, A^4.67-Y5R (Homo sapiens, UniProt Q15761, V181A); type: cell-based; settings: Figure 6C; transiently transfected COS-7
T1 sequence (Q15761 1-445 V181A): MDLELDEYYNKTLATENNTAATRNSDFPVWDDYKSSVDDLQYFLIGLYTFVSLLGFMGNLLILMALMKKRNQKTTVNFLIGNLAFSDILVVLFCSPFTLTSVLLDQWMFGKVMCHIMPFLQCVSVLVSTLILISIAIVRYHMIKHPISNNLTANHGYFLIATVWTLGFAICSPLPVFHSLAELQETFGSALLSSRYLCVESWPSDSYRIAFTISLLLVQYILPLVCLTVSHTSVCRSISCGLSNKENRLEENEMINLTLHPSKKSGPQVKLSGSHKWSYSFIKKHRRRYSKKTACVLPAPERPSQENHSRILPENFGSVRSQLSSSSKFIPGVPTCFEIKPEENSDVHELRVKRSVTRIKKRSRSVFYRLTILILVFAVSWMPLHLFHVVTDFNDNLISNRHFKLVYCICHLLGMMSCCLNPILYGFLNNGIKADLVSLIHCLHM

[3] = tested on: Y5R; settings: still binds Y5R but not other Y receptors; cited from earlier work

W^36-NPY: NPY with Y^36 substituted by Trp
Potency loss at wt Y5R compared to NPY [1]: 2 fold

A^28-NPY: NPY analog carrying Ala at position 28
Potency at A^4.67-Y5R compared to wt NPY [2]: lower potency

T32P-NPY: NPY with Thr32 substituted to Pro
Receptor selectivity [3]: selective Y5R agonist

[Y^36A]-NPY: NPY with Y^36 substituted by Ala
Potency loss at wt Y5R compared to NPY [1]: 43 fold
